T1: human CCR1 (Homo sapiens, UniProt P32246)
T1 sequence (P32246 1-355): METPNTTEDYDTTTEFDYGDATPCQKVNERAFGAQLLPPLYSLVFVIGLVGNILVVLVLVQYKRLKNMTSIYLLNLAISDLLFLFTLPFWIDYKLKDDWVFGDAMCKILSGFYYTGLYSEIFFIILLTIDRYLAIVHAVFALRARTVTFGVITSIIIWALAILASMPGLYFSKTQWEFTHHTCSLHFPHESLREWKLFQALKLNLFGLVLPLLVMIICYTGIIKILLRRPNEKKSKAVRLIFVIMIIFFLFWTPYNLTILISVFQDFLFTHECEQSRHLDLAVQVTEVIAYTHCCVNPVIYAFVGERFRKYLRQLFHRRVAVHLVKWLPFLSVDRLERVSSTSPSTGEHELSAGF


Target: T1, human CCR1
Assay: not given
Details: result in words; cited from earlier work

Molecule	signalling through human CCR1
MCP-1: human chemokine that binds human CCR1 with low affinity; a ligand for CCR2	neither ligand is able to signal
MIP-1β: human chemokine that binds human CCR1 with low affinity (protein, UniProt P13236 24-92, looked up) C-C motif chemokine 4: APMGSDPPTACCFSYTARKLPRNFVVDYYETSSLCSQPAVVFQTKRSKQVCADPSESWVQEYVYDLELN	neither ligand is able to signal

Target: T1, human CCR1
Assay: In vitro assay for CCR1 receptor antagonists: competition with 125I-MIP-1α or 125I-RANTES on 293MR cells
Assay type: binding
Parameters: expressed in transfected cells
Details: Table 2
Description: Human CCR1 cDNA was provided through collaboration with Dr. Stephen Peiper of the University of Louisville, Ky. […] The plasmid also contained hygromycin and puromycin resistance genes. Calcium phosphate transfection standard protocols were used to insert the plasmid into the HEK293 cells. Cells were selected for stable expression of CCR1 using hygromycin and puromycin selection.
• 130 mM NaCl, 5 mM KCl, 1 mM MnCl2, 50 mM Tris, 30 μg/ml bacitracin, 0.1% BSA, pH 7.4.
The stock solution of the compounds was 1 mM in 100% DMSO. […] A serial 1:3 dilution from the highest concentration was made with assay buffer. Six concentrations of each compound were usually being screened to generate a dose curve from which the Ki value was determined.
Assays were performed in 96-well v-bottom microtiter plates in a total volume of 100 μl. […] The cells were washed once in PBS and resuspended in the assay buffer to about 1.1×10^5 cells/mL.
The radioactivities in each well were determined by scintillation counting following addition of 50 μl of scintillation fluid.
The nonspecific binding was defined by the binding in the presence of 100 nM of unlabeled MIP-1α or RANTES.
The dose curves of each compound with 6 concentration points were generated and IC50 values were determined by fitting the data to the log-logit equation (linear) with an EXCEL spread-sheet.

Molecule	Ki [nM]
C[C@@H]1CN(C(=O)CC(NS(C)(=O)=O)c2ccc(Cl)cc2)[C@@H](C)CN1Cc1ccc(F)cc1 (stereo partly drawn) [compound 43]	32
CC1CN(C(=O)COc2ccc(Cl)cc2N)C(C)CN1Cc1ccc(F)cc1 (stereo not drawn) [compound 15]	9
C[C@@H]1CN(C(=O)COc2ccc3ccc(=O)oc3c2)[C@@H](C)CN1Cc1ccc(F)cc1 [compound 39]	18
CC(=O)Nc1cc(Cl)ccc1OCC(=O)N1CCN(Cc2ccc(F)cc2)CC1C (stereo not drawn) [compound 19]	5
C[C@@H]1CN(C(=O)COc2ccc(Cl)cc2NS(C)(=O)=O)[C@@H](C)CN1Cc1ccc(F)cc1 [compound 24]	6
O=C(COc1ccc(Cl)cc1)N1CCN(Cc2ccc(F)cc2)CC12CC2 [compound 46]	74
C[C@@H]1CN(C(=O)COc2ccc(Cl)cc2N2C(=O)c3ccccc3C2=O)[C@@H](C)CN1Cc1ccc(F)cc1 [compound 40]	64
C[C@@H]1CN(Cc2ccc(F)cc2)[C@@H](CC#N)CN1C(=O)COc1ccc(Cl)cc1 [compound 48]	38
CCC[C@@H]1CN(Cc2ccc(F)cc2)CCN1C(=O)COc1ccc(Cl)cc1 [compound 45]	75
C[C@@H]1CN(C(=O)COc2ccc(Cl)cc2NC(=O)CN)[C@@H](C)CN1Cc1ccc(F)cc1 [compound 26]	1
C[C@@H]1CN(C(=O)CC(CN)c2ccc(Cl)cc2)[C@@H](C)CN1Cc1ccc(F)cc1 (stereo partly drawn) [compound 41]	56
CCCC(C)Nc1cc(Cl)ccc1OCC(=O)N1C[C@@H](C)N(Cc2ccc(F)cc2)C[C@@H]1C (stereo partly drawn) [compound 18]	87
CC(=O)Nc1ccccc1OCC(=O)N1CCN(Cc2ccc(F)cc2)CC1C (stereo not drawn) [compound 31]	106
Cc1cc(O)cc(OCC(=O)N2C[C@H](C)N(Cc3ccc(F)cc3)C[C@H]2C)c1 [compound 33]	5
CC(=O)NCC(CC(=O)N1C[C@@H](C)N(Cc2ccc(F)cc2)C[C@@H]1C)c1ccc(Cl)cc1 (stereo partly drawn) [compound 42]	26
CC(c1cc(Cl)ccc1OCC(=O)N1C[C@@H](C)N(Cc2ccc(F)cc2)C[C@@H]1C)n1ccnc1 (stereo partly drawn) [compound 29]	6
CC(C)C(=O)Nc1cc(Cl)ccc1OCC(=O)N1C[C@@H](C)N(Cc2ccc(F)cc2)C[C@@H]1C [compound 21]	13

Molecule	Ki [nM]
C[C@@H]1CN(C(=O)COc2ccc(Cl)cc2C(N)=O)[C@@H](C)CN1Cc1ccc(F)cc1 [compound 47]	3
COC(=O)c1ccc(OC)cc1OCC(=O)N1C[C@@H](C)N(Cc2ccc(F)cc2)C[C@@H]1C [compound 34]	31
CCN(C)C(C)c1cc(Cl)ccc1OCC(=O)N1C[C@@H](C)N(Cc2ccc(F)cc2)C[C@@H]1C (stereo partly drawn) [compound 28]	18
CC(O)C1CN(Cc2ccc(F)cc2)CCN1C(=O)COc1ccc(Cl)cc1 (stereo not drawn) [compound 35]	13
C=CC(O)CC1CN(Cc2ccc(F)cc2)CCN1C(=O)COc1ccc(Cl)cc1 (stereo not drawn) [compound 36]	172
CCCC(=O)Nc1cc(Cl)ccc1OCC(=O)N1C[C@@H](C)N(Cc2ccc(F)cc2)C[C@@H]1C [compound 20]	7
COC(=O)CCC(=O)Nc1cc(Cl)ccc1OCC(=O)N1C[C@@H](C)N(Cc2ccc(F)cc2)C[C@@H]1C [compound 23]	5
C[C@@H]1CN(C(=O)COc2ccc(Cl)cc2C(=O)NCCN)[C@@H](C)CN1Cc1ccc(F)cc1 [compound 30]	9
C[C@@H]1CN(Cc2ccc(F)cc2)[C@@H](CN2CCOCC2)CN1C(=O)COc1ccc(Cl)cc1 [compound 49]	109
C[C@@H]1CN(C(=O)COc2cccc(C#N)c2)[C@@H](C)CN1Cc1ccc(F)cc1 [compound 32]	68
CC1CN(Cc2ccc(F)cc2)CCN1C(=O)COc1ccc(Cl)c([N+](=O)[O-])c1 (stereo not drawn) [compound 16]	21
CCC1CN(Cc2ccc(F)cc2)CCN1C(=O)COc1ccc(Cl)cc1 (stereo not drawn) [compound 44]	15
O=C(COc1ccc(Cl)cc1)N1CCN(Cc2ccc(F)cc2)C(C(F)(F)F)C1 (stereo not drawn) [compound 37]	148
C[C@@H]1CN(C(=O)COc2ccc(Cl)cc2NCc2ccccc2)[C@@H](C)CN1Cc1ccc(F)cc1 [compound 17]	42
C[C@@H]1CN(C(=O)COc2ccc(Cl)cc2NC(=O)CNC(N)=O)[C@@H](C)CN1Cc1ccc(F)cc1 [compound 27]	2
C[C@@H]1CN(C(=O)COc2ccc(Cl)cc2CNC(N)=O)[C@@H](C)CN1Cc1ccc(F)cc1 [compound 14]	2
COCC(=O)Nc1cc(Cl)ccc1OCC(=O)N1C[C@@H](C)N(Cc2ccc(F)cc2)C[C@@H]1C [compound 22]	3

From patent US20080119471A1, “Piperazine urea derivatives for the treatment of endometriosis” (priority 2004, published 2008)
